Test [1] has as its target T1, Alpha-1B adrenergic receptor (Rattus norvegicus, UniProt P15823).
T1 sequence (P15823 whole entry): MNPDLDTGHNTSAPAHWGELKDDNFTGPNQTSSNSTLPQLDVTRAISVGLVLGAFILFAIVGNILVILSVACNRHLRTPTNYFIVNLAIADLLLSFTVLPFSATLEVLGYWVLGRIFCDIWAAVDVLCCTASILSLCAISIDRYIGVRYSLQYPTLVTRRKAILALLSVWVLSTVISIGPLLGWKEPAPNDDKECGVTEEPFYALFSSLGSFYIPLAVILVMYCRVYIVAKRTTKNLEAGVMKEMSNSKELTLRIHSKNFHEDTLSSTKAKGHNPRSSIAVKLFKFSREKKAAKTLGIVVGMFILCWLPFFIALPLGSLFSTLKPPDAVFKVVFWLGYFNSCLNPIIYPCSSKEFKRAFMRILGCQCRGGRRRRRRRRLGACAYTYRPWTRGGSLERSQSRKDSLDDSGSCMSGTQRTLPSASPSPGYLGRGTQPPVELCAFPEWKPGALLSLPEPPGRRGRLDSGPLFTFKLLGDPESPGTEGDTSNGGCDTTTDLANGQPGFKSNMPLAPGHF

The target of test [2] is T2, Alpha-1A adrenergic receptor (Rattus norvegicus, UniProt P43140).
T2 sequence (P43140 whole entry): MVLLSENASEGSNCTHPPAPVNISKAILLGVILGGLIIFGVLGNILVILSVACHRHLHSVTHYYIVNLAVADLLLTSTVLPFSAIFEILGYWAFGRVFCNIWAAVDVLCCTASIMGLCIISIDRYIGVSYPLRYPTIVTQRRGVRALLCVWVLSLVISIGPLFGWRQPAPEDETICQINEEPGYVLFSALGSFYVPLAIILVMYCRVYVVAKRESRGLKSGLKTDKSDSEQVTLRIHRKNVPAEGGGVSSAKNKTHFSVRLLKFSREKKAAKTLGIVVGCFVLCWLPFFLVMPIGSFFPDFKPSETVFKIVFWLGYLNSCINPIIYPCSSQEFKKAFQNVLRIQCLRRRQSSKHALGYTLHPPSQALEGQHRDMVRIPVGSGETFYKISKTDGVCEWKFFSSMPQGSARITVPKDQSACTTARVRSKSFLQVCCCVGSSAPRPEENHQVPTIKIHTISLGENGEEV

Test [3] addresses T3, Alpha-1A adrenergic receptor (Bos taurus, UniProt P18130).
T3 sequence (P18130 whole entry): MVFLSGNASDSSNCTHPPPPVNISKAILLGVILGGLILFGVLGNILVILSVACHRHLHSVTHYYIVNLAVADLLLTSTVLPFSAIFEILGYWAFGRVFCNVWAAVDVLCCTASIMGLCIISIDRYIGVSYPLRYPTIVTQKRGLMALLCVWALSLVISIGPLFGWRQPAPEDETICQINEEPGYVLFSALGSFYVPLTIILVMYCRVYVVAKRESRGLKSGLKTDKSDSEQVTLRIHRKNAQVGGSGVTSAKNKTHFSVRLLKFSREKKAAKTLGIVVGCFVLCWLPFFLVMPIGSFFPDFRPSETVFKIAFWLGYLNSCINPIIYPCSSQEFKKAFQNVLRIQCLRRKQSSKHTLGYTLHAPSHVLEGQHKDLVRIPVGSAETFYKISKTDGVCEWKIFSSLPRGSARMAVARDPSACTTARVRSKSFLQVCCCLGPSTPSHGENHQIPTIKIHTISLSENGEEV

For the molecule `COc1ccc(OC)c(C(O)C(C)N)c1` (stereo not drawn), the inhibition constant (Ki) was 1610 nM in test [1], greater than 10000 nM in test [2] and greater than 10000 nM in test [3].

`O=C(NC1CCN(CCc2c[nH]c3ccccc23)CC1)c1ccccc1` [N-{1-[2-(1H-Indol-3-yl)-ethyl]-piperidin-4-yl}-benzamide(indoramin)]: the results for the Ki in test [1] and in test [2] were 226 nM and 611 nM, respectively. As to `COc1cccc(OC)c1OCCNCC1Oc2ccccc2OC1c1ccccc1` (stereo not drawn) [NSC_185453], the Ki in test [1] was found to be 28.6 nM; in test [2], 2.1 nM; in test [3], 0.68 nM.

Turning to `NCC(O)c1ccc(O)c(O)c1` (stereo not drawn) [Noradrenaline,(+)], the affinity in test [3], expressed as Ki, was 9730 nM. For the molecule `CNC[C@H](O)c1cccc(O)c1` [PHENYLEPHRINE], the Ki in test [3] was greater than 10000 nM. The molecule `Cc1ccc(N(CC2=NCCN2)c2cccc(O)c2)cc1` [SMR000059054] came in with a Ki in test [3] of 15.3 nM. The same measure, in the same setting: under `Cc1cc(C(C)(C)C)c(O)c(C)c1CC1=NCCN1` [SMR000059324] stands 114 nM.

On to `COC(=O)[C@@H]1[C@H]2C[C@H]3c4[nH]c5ccccc5c4CCN3C[C@@H]2CC[C@@H]1O` [yohimbic acid methyl ester], for which the affinity in test [1], expressed as Ki, was 517 nM.

The Ki is the equilibrium dissociation constant of an inhibitor or competing ligand from its target.

Source of the values: BindingDB's records for PubMed 1706716 (Duke University, 1991).
